Measurements: PMC5923142, “Selection and Characterization of Rupintrivir-Resistant Norwalk Virus Replicon Cells In Vitro” (Antimicrobial Agents and Chemotherapy, 2018)

Legend:
[1] = tested on: recombinant WT MNV; test: Antiviral effect against recombinant WT MNV infection of BV-2 cells (TCID50); assay type: cell-based, murine norovirus; conditions: BV-2, 24 h
Procedure: BV-2 cells were infected with recombinant WT MNV or the MNV I109V mutant at an MOI of 0.1 or 1 for 1 h in the CO2 incubator at 37°C. After incubation, the supernatant was removed and the cells were washed twice with PBS, and then complete DMEM containing various concentrations of rupintrivir or 2CMC was added to the cells. After 24 h for incubation, the virus titers of the supernatant were determined by measurement of the TCID50. On the basis of the TCID50, the 90% effective concentration (EC90) values of rupintrivir and 2CMC were calculated using XLfit (version 5.3) software.

[2] = tested on: Norwalk virus replicon; test: Replicon clearance from HGT-NV cells over 12 days without G418 (qRT-PCR); assay type: cell-based, Human norovirus (HuNoV) GI; conditions: 12 days posttreatment, no G418
Procedure: To confirm the previously reported inhibitory effects of rupintrivir on human norovirus replication ([10]), we generated a human gastric adenocarcinoma cell line, HGT-NV, which stably maintained a Norwalk virus replicon encoding the neomycin resistance gene in place of the major capsid protein. The effects of rupintrivir on norovirus RNA replication in the replicon cells were evaluated by quantitative reverse transcription-PCR (qRT-PCR). […] To determine the concentration of rupintrivir sufficient to completely eliminate the norovirus replicon from HGT-NV cells, we treated the replicon cells with 2.5, 5, and 10 μM rupintrivir in the absence of G418 for up to 12 days. The replicon cells were passaged on days 3, 8, and 12, and the levels of replicon RNA were quantified by qRT-PCR. […] To further characterize the inhibitory effects of rupintrivir, we performed a colony formation assay with replicon cells treated with rupintrivir for 12 days. […]
The inhibitory effect of rupintrivir on HuNoV replication was assessed by quantification of the levels of GI NuNoV RNA and β-actin RNA as the reference gene. […] The real-time quantitative reverse transcription-PCR (qRT-PCR) assay was performed by using a One-Step Plus qRT-PCR kit according to the protocol of the manufacturer (Primer Design). […] Relative quantification was performed using the 2^−ΔΔCT threshold cycle (CT) method ([38]). […]

[3] = biological target: T1, MNV A105V/I109V protease (polyprotein) (Norovirus, UniProt Q80J95, A1099V/I1103V); test: In vitro translation, MNV polyprotein processing, A105V/I109V protease; assay type: biochemical, murine norovirus; conditions: 80 μM, rabbit reticulocyte lysate
T1 construct: in vitro-transcribed MNV full-length capped RNA containing either the WT or mutant proteases; made in house; host or cells: rabbit reticulocyte lysate (Flexi system, Promega), in vitro translation
Procedure: FIG 4 Impact of rupintrivir resistance-conferring mutations on MNV polyprotein processing in vitro. In vitro translation reactions were programmed with equal quantities of in vitro-transcribed MNV full-length capped RNA containing either the WT or mutant proteases in the presence and absence of 80 μM rupintrivir. The [^35S]methionine-labeled products were subsequently analyzed by SDS-PAGE and phosphorimaging analysis. The percentage of fully processed NS3, determined on the basis of the expected molecular mass of the proteins, was calculated and expressed relative to the total amount of viral protein produced.
In vitro translation reactions were performed using a Flexi rabbit reticulocyte lysate system (Promega). The reaction mixtures were prepared according to the manufacturer's instructions as described for capped mRNAs and programmed with 1 μg of RNA per 25-μl reaction mixture. The reaction mixtures were incubated at 30°C for 90 min prior to the addition of an equal volume of SDS-PAGE sample buffer. Samples were subsequently resolved on a 12.5% SDS-polyacrylamide gel before exposure to a phosphorimager screen.

Compound: CCOC(=O)/C=C/[C@H](C[C@@H]1CCNC1=O)NC(=O)[C@@H](CC(=O)[C@@H](NC(=O)c1cc(C)on1)C(C)C)Cc1ccc(F)cc1 [rupintrivir, Rupintrivir]
- EC90 ([1]; MOI 0.1 TCID50/cell): 9.1 µM
- EC90 ([1]; MOI 1 TCID50/cell): 8.9 µM
- level of replicon RNA ([2]; 5 μM): below the limit of quantification
- level of replicon RNA ([2]; 10 μM): below the limit of quantification
- polyprotein processing (mature NS3) [3]: still able to produce mature NS3
